Data from the NIST ThermoML archive (doi:10.1021/je200302h).

Conditions: Liquid, Drop weight

O=C=O [carbon dioxide] + O
interfacial tension [mN/m]
Conditions	8380 kPa	10440 kPa	13890 kPa	17340 kPa	20790 kPa
298.15 K	25.65	25.15	24.85	24.9	25
313.15 K	22.23	22.16	23.33	23.41	25.07
323.15 K	–	23.05	22.74	24.27	23.5
333.15 K	–	–	23.36	23.58	22.8
